Peptide text beside a SMILES is read from it.
Experiments:
Kunming mice [1] = assay: Acute toxicity test, intraperitoneal injection; assay type: in vivo
Description: 1) Main Observation Indicators:
(2) Minimal lethal dose (MLD): a dose that causes death in individual tested animals;
(3) The highest dose of nontoxic reaction (highest nontoxic dose): that is, no observed adverse effect level ([…]), i.e. the highest dose under which no injury is found for animals in a certain period of time;
(4) Minimum toxic reaction dose: minimum dose of toxic reaction in animals: that is the lowest dose of the toxic reaction in animals whose toxic responses are just caused.
(1) Tested animals: Kunming mice, half male and half female (healthy adult, weight 19-20 g);
(2) Subjects: SVHRSP: • a. source: BmK scorpion venom extract purchased from Henan Yichang Xinxin Scorpion Factory (May 28, 2012); • b. Lot No: P160418-CQ455216; • c. Content (or specification): 10 mg/piece; • d. Preservation conditions and preparation methods: −20° C. for long-term preservation, 4° C. for preservation within 7-10 d, and redissolved with millipore water when in use.
(3) Administration Route: respectively ip (intraperitoneal injection) route (the largest volume commonly used in mice ip route administration is 0.1-1.0 ml/20 gBW) the optimal administration doses to the animals (the doses are different, but the administration capacity is identical) are selected according to the route of administration, and 0.2 ml/20 gBW is adopted for the ip administration routes in this experiment.
According to the approximate lethal dose method, list the possible sequences:
the possible maximum tolerance dose and the possible minimum lethal dose of the SVHRSP are estimated according to the acute toxicity test results of the former scorpion venom heat-resistant polypeptide on Kunming mice. Then, a dose sequence table containing several doses is designed according to the 50% incremental method:
The possible lethal dose ranges (115.2, 76.8, 51.2, 34.1 mg/kg) are found from the estimated dose sequence list, where each dose is given to one animal, the minimum lethal dose and the maximum tolerated dose are measured, and then the dose between the two is given to an animal. If the animal under this dose doesn't die, the range between this dose and the minimum lethal dose is the approximate lethal dose range; if the animal under this dose dies, the range between this dose and the maximum tolerance dose is the approximate lethal dose range.

Kunming mice [2] = assay: Acute toxicity test, intraperitoneal injection; assay type: in vivo; details: 78.6 mg/kgBW ip
[3] = system: lithium-pilocarpine epilepsy model rats; assay: Lithium-pilocarpine refractory epilepsy chronic model, episodes; assay type: in vivo, SD rats; details: 300 mg/kg, n = 9
Description: (1) Selection and groups of animals that 180 g healthy male SD rats are selected. Lithium-pilocarpine ip (intraperitoneal administration) 300 mg/kg is used to induce temporal lobe epilepsy episodes. After 15 days of acute epilepsy episode, epilepsy rats are randomly divided into a model group and a model administration group. […] The levels of epilepsy are observed and recorded, and graded according to Racine as the evaluation criteria.

In the case of `CC(C)C[C@H](NC(=O)[C@@H](NC(=O)[C@@H](N)CCCCN)C(C)C)C(=O)N[C@@H](CC(N)=O)C(=O)NCC(=O)N1CCC[C@H]1C(=O)N[C@@H](CCC(=O)O)C(=O)N[C@@H](CCC(=O)O)C(=O)N[C@@H](CCC(=O)O)C(=O)N[C@@H](C)C(=O)N[C@@H](C)C(=O)N[C@@H](C)C(=O)N1CCC[C@H]1C(=O)N[C@@H](C)C(=O)N[C@@H](CCC(=O)O)C(=O)O` [SVHRSP] (H-KVLNGPEEEAAAPAE-OH), the “Lethal (%)” value (Kunming mice [1]; 115.2 mg/kgBW ip) is reported as 0%, the “Survival (%)” value (Kunming mice [1]; 115.2 mg/kgBW ip) is reported as 100% and the “Lethal (%)” value (Kunming mice [1]; 172.8 mg/kgBW ip) is reported as 0%. For the same molecule, the “Survival (%)” value (Kunming mice [1]; 172.8 mg/kgBW ip) was 100%, the “Lethal (%)” value (Kunming mice [1]; 500 mg/kgBW ip) was 0% and the “Survival (%)” value (Kunming mice [1]; 500 mg/kgBW ip) was 100%. For the same molecule, the “Lethal (%)” value (Kunming mice [1]; 2000 mg/kgBW ip) was 0%, the “Survival (%)” value (Kunming mice [1]; 2000 mg/kgBW ip) was 100% and the “Toxic Reaction” value (Kunming mice [1]; 2000 mg/kgBW ip) was “no any toxic reaction is observed”. The “ratio of medicinal safety and pharmacodynamic activity (2000/0.05)” value (Kunming mice [1]; ip 2000 mg/kg vs 0.05 mg/kg effective dose) was > 40,000 times, the “maximum non-toxic dose (highest nontoxic dose, no observed adverse effect level)” value (Kunming mice [1]; ip, up to 2000 mg/kg·BW) was “has not reached yet” and the “Lethal (%)” value (Kunming mice [2]) was 0%. For the same molecule, the “Survival (%)” value (Kunming mice [2]) was 100%.

`CCCC(CCC)C(=O)[O-].[Na+]` [sodium valproate] was tested, and the “Total Episode Averages superimposed ± Standard Deviation” value ([3]; First day) was 2.67 ± 0.85, the “Total Episode Averages superimposed ± Standard Deviation” value ([3]; First eight days) was 15.11 ± 2.73 and the “Total Episode Averages superimposed ± Standard Deviation” value ([3]; First eleven days) was 18.89 ± 3.13. For the same molecule, the “Total Episode Averages superimposed ± Standard Deviation” value ([3]; First fifteen days) was 23.56 ± 3.79, the “Total Episode Averages superimposed ± Standard Deviation” value ([3]; First five days) was 11.67 ± 2.24 and the “Total Episode Averages superimposed ± Standard Deviation” value ([3]; First four days) was 9.56 ± 1.96. The “Total Episode Averages superimposed ± Standard Deviation” value ([3]; First fourteen days) was 22.67 ± 3.56, the “Total Episode Averages superimposed ± Standard Deviation” value ([3]; First nine days) was 16.33 ± 3.05 and the “Total Episode Averages superimposed ± Standard Deviation” value ([3]; First seven days) was 13.89 ± 2.45. The “Total Episode Averages superimposed ± Standard Deviation” value ([3]; First six days) was 12.67 ± 2.30, the “Total Episode Averages superimposed ± Standard Deviation” value ([3]; First ten days) was 17.55 ± 2.91 and the “Total Episode Averages superimposed ± Standard Deviation” value ([3]; First thirteen days) was 21.78 ± 3.58. The “Total Episode Averages superimposed ± Standard Deviation” value ([3]; First twelve days) was 20.56 ± 3.33 and the “Total Episode Averages superimposed ± Standard Deviation” value ([3]; First two days) was 5.56 ± 1.27.

From patent US10442837B2, “Scorpion venom heat-resistant synthetic peptide and applications thereof” (priority 2016, dated 2019)
